Consider 28 molecules from patent publication US10807993B2, “Dihydrochromene derivatives” (Sumitomo Dainippon Pharma Co., Ltd., priority 2018, dated 2020).

One series deals with HT-29 cells. Kind of series: Inhibition test for sphere formation assay of cancer cells. Particulars: for IC50: sphere culture (ultra-low attachment, serum-free), 4 days, CellTiter-Glo, read-out: Sphere IC50 value (concentration for 50% inhibition of cell proliferation); for activity for inhibiting cell proliferation in the sphere culture condition: summary in words. It counts as cell-based. As for the experimental part: Reliable methods established for measuring the self-renewal ability of cells which is one of the CSC's properties include a method for measuring the sphere-forming ability of cancer cells in non-adherent condition in the absence of serum (Cancer Res 65, 5506-5511 (2005)). HT-29 cells were available from American Type Culture Collection (ATCC). HT-29 cells were cultured at 37° C. under 5% CO2 using the McCoy's 5a medium containing 10% fetal bovine serum (FBS) and 1% penicillin/streptomycin. HT-29 cells were seeded in a 384 Well Black Clear Bottom Ultra-Low Attachment Microplate (Corning Cat. No. 3827) in an amount of 350-800 cells/well using the DMEM/F12 medium containing 2% B27 supplement (GIBCO), 20 ng/mL epidermal growth factor (EGF) (peprotech), 10 ng/mL basic fibroblast growth factor (bFGF) (peprotech), 5 μg/mL insulin (Sigma), and 1% penicillin/streptomycin. Each test compound was added into each well to adjust the final concentration of DMSO to 0.1%, and the cells were cultured for 4 days. The number of viable cells in each well was then measured with CellTiter-Glo™ Luminescent Cell Viability Assay (Promega) to calculate the concentration of each test compound for 50% inhibition of cell proliferation (Sphere IC50 value; […])
The experiment of Test 1 was performed for each compound of each Example. The concentration of each test compound for 50% inhibition of cell proliferation (Sphere IC50 value; μmol/L) is shown in the following Table.

The target in series [1] is T1, hERG (Homo sapiens (Human), UniProt Q12809).
T1 sequence (Q12809 whole entry): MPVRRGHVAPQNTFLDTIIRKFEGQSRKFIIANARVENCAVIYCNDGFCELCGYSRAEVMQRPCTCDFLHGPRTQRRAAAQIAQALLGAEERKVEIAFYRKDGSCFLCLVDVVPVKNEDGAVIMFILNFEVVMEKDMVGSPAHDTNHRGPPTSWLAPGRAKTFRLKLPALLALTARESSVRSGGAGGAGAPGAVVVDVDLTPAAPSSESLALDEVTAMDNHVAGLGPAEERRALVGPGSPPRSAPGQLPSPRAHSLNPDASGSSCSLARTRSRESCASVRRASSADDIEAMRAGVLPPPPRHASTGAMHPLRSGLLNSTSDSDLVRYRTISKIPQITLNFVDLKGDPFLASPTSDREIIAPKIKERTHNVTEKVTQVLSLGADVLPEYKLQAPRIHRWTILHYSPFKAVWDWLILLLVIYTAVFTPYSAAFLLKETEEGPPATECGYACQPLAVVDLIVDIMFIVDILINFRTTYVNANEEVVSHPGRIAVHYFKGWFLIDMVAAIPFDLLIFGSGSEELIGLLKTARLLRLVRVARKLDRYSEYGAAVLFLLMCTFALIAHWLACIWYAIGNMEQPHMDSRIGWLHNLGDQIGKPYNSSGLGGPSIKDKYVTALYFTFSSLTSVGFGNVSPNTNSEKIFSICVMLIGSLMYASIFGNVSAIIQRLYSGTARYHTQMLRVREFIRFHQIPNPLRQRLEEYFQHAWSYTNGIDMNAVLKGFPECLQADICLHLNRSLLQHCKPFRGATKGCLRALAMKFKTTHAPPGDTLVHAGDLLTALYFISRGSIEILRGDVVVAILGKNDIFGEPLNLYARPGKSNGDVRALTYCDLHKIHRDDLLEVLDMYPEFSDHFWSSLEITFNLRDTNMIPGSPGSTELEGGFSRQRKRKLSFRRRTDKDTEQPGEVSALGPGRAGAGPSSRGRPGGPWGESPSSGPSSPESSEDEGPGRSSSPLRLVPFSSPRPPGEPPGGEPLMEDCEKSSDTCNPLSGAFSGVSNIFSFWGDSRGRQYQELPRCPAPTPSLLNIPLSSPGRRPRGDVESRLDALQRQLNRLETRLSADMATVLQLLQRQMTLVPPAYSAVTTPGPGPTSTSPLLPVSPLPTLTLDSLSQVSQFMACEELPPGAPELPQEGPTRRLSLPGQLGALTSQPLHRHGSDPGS
Procedure: (§1) To a cultured CHO cell strain which stably expresses hERG was added each test compound to adjust the final concentration of DMSO to 0.0135 to 0.5%. The hERG current was measured with QPatch HT (Sophion Inc.), and the concentration at which 50% of the hERG current was inhibited by each test compound (IC50 value; μM) was calculated.
(§2) The compounds of Examples were tested according to Test 2. And, the hERG/HT-29 was calculated by dividing the compound concentration obtained in Test 2 (50% of the hERG current is inhibited) by the compound concentration obtained in Test 1 (50% of the proliferation of HT-29 cells is inhibited).
For series [2], the target named is T1, hERG. Kind of series: Test for evaluating hERG inhibition (QPatch HT, CHO cell strain stably expressing hERG). To be noted: for hERG/HT-29: hERG IC50 (Test 2) divided by HT-29 sphere IC50 (Test 1); for IC50: read-out: Binding inhibition (IC50, μM), concentration at which 50% of the hERG current was inhibited, CHO cells stably expressing hERG, QPatch HT; for deviation between the concentration of inhibiting 50% cell proliferation and the concentration of inhibiting 50% hERG current: summary in words of hERG/HT-29.
Procedure: as §1, §2

Like-named read-outs stand apart in the source and are kept apart here.

Regarding `Cc1nccn1CC(=O)N1CCC2(CC1)COC1c3cc(Cl)ccc3OC(C)(C)C1C2` (single isomer, unassigned) [Example 3], the IC50 in the series on HT-29 cells was 80 nM. Further, on hERG [1], the IC50 is 200 nM and the hERG/HT-29 is 2.50.

On to `Cc1nccn1CC(=O)N1CCC2(CC1)COC1c3ccc(Br)cc3OC(C)(C)C1C2` (stereo not shown) [Example 8], for which the IC50 in the series on HT-29 cells turned out to be 310 nM. Further, at hERG [1], the IC50 came out at 300 nM and the hERG/HT-29 is recorded as 0.97.

With `CC1(C)Oc2ccc(N=[N+]=[N-])cc2C2OCC3(CCN(C(=O)Cn4ccnc4C#N)CC3)CC21` (stereo not shown) [Example 11], the figures for the IC50 with HT-29 cells and against hERG [1] were 4090 nM and 4900 nM, respectively. The molecule also yielded a hERG/HT-29 on hERG [1] of 1.20.

Turning to `CC1(C)Oc2ccc(Cl)cc2C2OCC3(CCN(C(=O)Cn4ccnc4C#N)CC3)CC21` (stereo not shown) [Example 12], the IC50 with HT-29 cells was determined as 550 nM. At hERG [1], this molecule yielded an IC50 of 2900 nM and a hERG/HT-29 of 5.27.

Regarding `Cc1c(CO)ncn1CC(=O)N1CCC2(CC1)COC1c3cc(Cl)ccc3OC(C)(C)C1C2` (stereo not shown) [Example 14], the IC50 in the series with HT-29 cells is 400 nM; at hERG [1] it was 300 nM. In addition, the hERG/HT-29 on hERG [1] is 0.75.

For `CC1(C)Oc2ccc(Cl)cc2C2OCC3(CCN(C(=O)Cn4ccnc4CO)CC3)CC21` (stereo not shown) [Example 15], in the series with HT-29 cells, the IC50 came out at 300 nM. At hERG [1], the IC50 was found to be 1600 nM and the hERG/HT-29 is reported as 5.33.

Turning to `CC1(C)Oc2ccc(Cl)cc2C2OCC3(CCN(C(=O)Cn4cnc(C(F)(F)F)c4)CC3)CC21` (stereo not shown) [Example 17], the IC50 with HT-29 cells turned out to be 8300 nM. On hERG [1], the IC50 came to 3000 nM and the hERG/HT-29 is on record as 0.36.

For `Cn1cncc1CN1CCC2(CC1)COC1c3cc(F)ccc3OC(C)(C)C1C2` (stereo not shown) [Example 31], in the series with HT-29 cells, the IC50 was found to be 60 nM. Moreover, at hERG [2], the hERG/HT-29 was determined as 23.3 and the IC50 stood at 1.4 µM.

Turning to `Cn1cncc1CN1CCC2(CC1)COC1c3cccc(Cl)c3OC(C)(C)C1C2` (stereo not shown) [Example 34], in the series on HT-29 cells, the IC50 was less than 10 nM and the “activity for inhibiting cell proliferation in the sphere culture condition” value is reported as “potent activity”. Besides, on hERG [2], the hERG/HT-29 is on record as greater than 140; the IC50 was 1.4 µM; the “deviation between the concentration of inhibiting 50% cell proliferation and the concentration of inhibiting 50% hERG current” value is recorded as “good deviation”.

As for `CC1(C)Oc2ccc(Cl)cc2C2OCC3(CCN(Cc4ncc[nH]4)CC3)CC21` (stereo not shown) [Example 35], the IC50 in the series on HT-29 cells amounted to 210 nM. For the same molecule, at hERG [2], the hERG/HT-29 is 16.7 and the IC50 came out at 3.5 µM.

`CC1(C)Oc2ccc(F)cc2C2OCC3(CCN(CCn4ccnc4)CC3)CC21` (stereo not shown) [Example 39]: in the series with HT-29 cells, the IC50 was less than 10 nM and the “activity for inhibiting cell proliferation in the sphere culture condition” value is reported as “potent activity”. In addition, on hERG [2], the hERG/HT-29 is on record as greater than 100; the IC50 worked out at 1 µM; the “deviation between the concentration of inhibiting 50% cell proliferation and the concentration of inhibiting 50% hERG current” value was “good deviation”.

`CC1(C)Oc2ccc(Cl)cc2C2OCC3(CCN(CCn4ccnc4)CC3)CC21` (stereo not shown) [Example 40]: in the series with HT-29 cells, the IC50 was less than 10 nM and the “activity for inhibiting cell proliferation in the sphere culture condition” value is “potent activity”. In addition, at hERG [2], the hERG/HT-29 is given as greater than 140; the IC50 amounted to 1.4 µM; the “deviation between the concentration of inhibiting 50% cell proliferation and the concentration of inhibiting 50% hERG current” value is on record as “good deviation”.

Consider `CC1(C)Oc2cc(Cl)ccc2C2OCC3(CCN(CCn4ccnc4)CC3)CC21` (stereo not shown) [Example 41], for which, in the series on HT-29 cells, the IC50 was less than 10 nM and the “activity for inhibiting cell proliferation in the sphere culture condition” value is recorded as “potent activity”. Also, on hERG [2], the hERG/HT-29 is greater than 70; the IC50 was determined as 0.7 µM; the “deviation between the concentration of inhibiting 50% cell proliferation and the concentration of inhibiting 50% hERG current” value is recorded as “good deviation”.

In the case of `CC1(C)Oc2cc(Cl)ccc2C2OCC3(CCN(CCn4ccnc4)CC3)CC21` (stereo not shown) [Example 42], in the series on HT-29 cells, the IC50 was less than 10 nM and the “activity for inhibiting cell proliferation in the sphere culture condition” value is recorded as “potent activity”. At hERG [2], the hERG/HT-29 was greater than 140; the IC50 was 1.4 µM; the “deviation between the concentration of inhibiting 50% cell proliferation and the concentration of inhibiting 50% hERG current” value is on record as “good deviation”.

As for `Cc1nccn1CCN1CCC2(CC1)COC1c3cc(F)ccc3OC(C)(C)C1C2` (stereo not shown) [Example 43], the IC50 in the series with HT-29 cells turned out to be 50 nM. On hERG [1], this molecule displayed an IC50 of 1000 nM and a hERG/HT-29 of 20.

On to `Cc1nccn1CCN1CCC2(CC1)COC1c3cc(F)ccc3OC(C)(C)C1C2` (stereo not shown) [Example 44], for which, in the series with HT-29 cells, the IC50 is less than 10 nM and the “activity for inhibiting cell proliferation in the sphere culture condition” value is “potent activity”. In addition, on hERG [2], the hERG/HT-29 is given as greater than 360; the IC50 came to 3.6 µM; the “deviation between the concentration of inhibiting 50% cell proliferation and the concentration of inhibiting 50% hERG current” value was “good deviation”.

For `Cc1nccn1CCN1CCC2(CC1)COC1c3cc(F)ccc3OC(C)(C)C1C2` (stereo not shown) [Example 45], in the series on HT-29 cells, the IC50 was less than 10 nM and the “activity for inhibiting cell proliferation in the sphere culture condition” value is “potent activity”. On hERG [1], the IC50 was found to be 400 nM and the hERG/HT-29 is recorded as greater than 40.

Turning to `Cc1nccn1CCN1CCC2(CC1)COC1c3cc(Cl)ccc3OC(C)(C)C1C2` (stereo not shown) [Example 47], in the series with HT-29 cells, the IC50 was less than 10 nM and the “activity for inhibiting cell proliferation in the sphere culture condition” value is given as “potent activity”. On hERG [2], the hERG/HT-29 is on record as greater than 190; the IC50 was 1.9 µM; the “deviation between the concentration of inhibiting 50% cell proliferation and the concentration of inhibiting 50% hERG current” value was “good deviation”.

For the molecule `Cc1nccn1CCN1CCC2(CC1)COC1c3cc(Cl)ccc3OC(C)(C)C1C2` (stereo not shown) [Example 48], in the series with HT-29 cells, the IC50 was less than 10 nM and the “activity for inhibiting cell proliferation in the sphere culture condition” value is listed as “potent activity”. For the same molecule, on hERG [2], the hERG/HT-29 is reported as greater than 80; the IC50 was 0.8 µM; the “deviation between the concentration of inhibiting 50% cell proliferation and the concentration of inhibiting 50% hERG current” value is given as “good deviation”.

Take `Cc1nccn1CCN1CCC2(CC1)COC1c3ccc(Cl)cc3OC(C)(C)C1C2` (stereo not shown) [Example 49]: in the series on HT-29 cells, the IC50 is less than 10 nM and the “activity for inhibiting cell proliferation in the sphere culture condition” value is “potent activity”. In addition, on hERG [2], the hERG/HT-29 is listed as greater than 140; the IC50 is 1.4 µM; the “deviation between the concentration of inhibiting 50% cell proliferation and the concentration of inhibiting 50% hERG current” value is on record as “good deviation”.

Consider `Cc1nccn1CCN1CCC2(CC1)COC1c3ccc(Cl)cc3OC(C)(C)C1C2` (stereo not shown) [Example 50], for which the IC50 with HT-29 cells worked out at 30 nM. On hERG [1], this molecule registered an IC50 of 1500 nM and a hERG/HT-29 of 50.

For the molecule `Cc1nccn1CCN1CCC2(CC1)COC1c3ccc(Cl)cc3OC(C)(C)C1C2` (stereo not shown) [Example 51], in the series with HT-29 cells, the IC50 was less than 10 nM and the “activity for inhibiting cell proliferation in the sphere culture condition” value is “potent activity”. For the same molecule, on hERG [2], the hERG/HT-29 is greater than 90; the IC50 is 0.9 µM; the “deviation between the concentration of inhibiting 50% cell proliferation and the concentration of inhibiting 50% hERG current” value is on record as “good deviation”.

`CC1(C)Oc2cc(Cl)ccc2C2OCC3(CCN(CCn4ccnc4CO)CC3)CC21` (stereo not shown) [Example 54]: in the series on HT-29 cells, the IC50 is less than 10 nM and the “activity for inhibiting cell proliferation in the sphere culture condition” value is “potent activity”. At hERG [2], the hERG/HT-29 is greater than 140; the IC50 was determined as 1.4 µM; the “deviation between the concentration of inhibiting 50% cell proliferation and the concentration of inhibiting 50% hERG current” value was “good deviation”.

As to `CC1(C)Oc2ccc(Cl)cc2C2OCC3(CCN(CCn4cnc(CO)c4)CC3)CC21` (stereo not shown) [Example 55], the IC50 with HT-29 cells is 60 nM. For the same molecule, on hERG [1], the IC50 amounted to 1600 nM and the hERG/HT-29 is listed as 26.7.

`Cc1c(CO)ncn1CCN1CCC2(CC1)COC1c3cc(Cl)ccc3OC(C)(C)C1C2` (stereo not shown) [Example 56]: in the series on HT-29 cells, the IC50 is less than 10 nM and the “activity for inhibiting cell proliferation in the sphere culture condition” value is on record as “potent activity”. Moreover, at hERG [2], the hERG/HT-29 is greater than 80; the IC50 turned out to be 0.8 µM; the “deviation between the concentration of inhibiting 50% cell proliferation and the concentration of inhibiting 50% hERG current” value is given as “good deviation”.

For `Cc1nc(CO)cn1CCN1CCC2(CC1)COC1c3ccc(Cl)cc3OC(C)(C)C1C2` (stereo not shown) [Example 57], in the series with HT-29 cells, the IC50 came to 70 nM. Besides, at hERG [1], the IC50 came to 1100 nM and the hERG/HT-29 was 15.7.

With `CC1(C)Oc2ccc(Cl)cc2C2OCC3(CCN(CCn4ccnc4C#N)CC3)CC21` (stereo not shown) [Example 58], the IC50 in the series with HT-29 cells was determined as 70 nM. On hERG [1], this molecule came in with an IC50 of 1900 nM and a hERG/HT-29 of 27.1.

As to `CC(=O)NCCc1nccn1CCN1CCC2(CC1)COC1c3cc(Cl)ccc3OC(C)(C)C1C2` (stereo not shown) [Example 60], in the series with HT-29 cells, the IC50 is 160 nM. On hERG [1], this molecule gave an IC50 of 1100 nM and a hERG/HT-29 of 6.88.
